Reference: US10034861B2 (priority 2016, dated 2018)
Where two headings read alike, the source gives them in different places.

Key:
Assay type in all cases: biochemical
PDE1C = PDE1C (Homo sapiens (Human), UniProt Q14123); experiment: biochemical
Source text: (§1) Table 1 lists the IC50 value for inhibition of PDE1 by the compounds of the invention. […] PDE1 assays are described in the Experimental Section.

PDE1A = PDE1A (Homo sapiens (Human), UniProt P54750); experiment: biochemical
Source text: as §1

PDE1B = PDE1B (Homo sapiens (Human), UniProt Q01064); experiment: PDE1 inhibition assay (PDE1B); conditions: 15 nM tritium labelled cAMP, 1 hr at room temperature, SPA beads
Source text: as §1

[1] = 15 nM tritium labelled cAMP, 1 hr at room temperature, SPA beads

PDE1B, sequence (Q01064 whole entry): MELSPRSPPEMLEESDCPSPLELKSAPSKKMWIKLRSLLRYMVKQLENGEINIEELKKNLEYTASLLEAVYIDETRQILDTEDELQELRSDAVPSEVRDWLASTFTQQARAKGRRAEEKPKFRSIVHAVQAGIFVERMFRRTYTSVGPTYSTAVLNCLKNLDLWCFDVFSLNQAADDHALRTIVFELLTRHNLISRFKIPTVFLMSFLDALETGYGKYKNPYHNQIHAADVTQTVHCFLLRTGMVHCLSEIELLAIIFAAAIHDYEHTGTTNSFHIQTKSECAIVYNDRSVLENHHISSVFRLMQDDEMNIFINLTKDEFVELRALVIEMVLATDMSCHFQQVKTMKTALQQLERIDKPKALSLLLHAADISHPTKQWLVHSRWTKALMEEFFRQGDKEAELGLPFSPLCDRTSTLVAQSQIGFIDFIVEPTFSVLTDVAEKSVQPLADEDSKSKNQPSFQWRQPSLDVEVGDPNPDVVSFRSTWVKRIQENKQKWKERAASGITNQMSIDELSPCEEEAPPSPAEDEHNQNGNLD
PDE1C, sequence (Q14123 whole entry): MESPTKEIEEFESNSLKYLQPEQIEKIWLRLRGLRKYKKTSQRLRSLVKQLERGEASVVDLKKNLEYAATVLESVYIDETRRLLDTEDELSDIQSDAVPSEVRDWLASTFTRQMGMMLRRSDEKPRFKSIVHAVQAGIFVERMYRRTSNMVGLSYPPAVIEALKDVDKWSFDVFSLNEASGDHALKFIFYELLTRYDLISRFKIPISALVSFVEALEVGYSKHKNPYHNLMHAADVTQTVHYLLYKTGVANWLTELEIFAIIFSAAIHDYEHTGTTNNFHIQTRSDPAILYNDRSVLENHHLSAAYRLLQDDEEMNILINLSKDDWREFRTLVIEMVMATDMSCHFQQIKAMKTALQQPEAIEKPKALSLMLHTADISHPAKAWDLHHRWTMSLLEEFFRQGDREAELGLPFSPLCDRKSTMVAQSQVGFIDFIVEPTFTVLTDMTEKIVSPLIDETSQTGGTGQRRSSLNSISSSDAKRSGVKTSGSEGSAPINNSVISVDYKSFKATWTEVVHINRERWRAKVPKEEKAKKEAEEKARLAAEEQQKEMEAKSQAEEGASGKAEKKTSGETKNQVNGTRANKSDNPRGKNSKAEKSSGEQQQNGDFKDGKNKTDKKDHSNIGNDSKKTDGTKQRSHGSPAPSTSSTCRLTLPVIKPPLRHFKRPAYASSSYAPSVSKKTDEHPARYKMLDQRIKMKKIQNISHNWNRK
PDE1A, sequence (P54750 whole entry): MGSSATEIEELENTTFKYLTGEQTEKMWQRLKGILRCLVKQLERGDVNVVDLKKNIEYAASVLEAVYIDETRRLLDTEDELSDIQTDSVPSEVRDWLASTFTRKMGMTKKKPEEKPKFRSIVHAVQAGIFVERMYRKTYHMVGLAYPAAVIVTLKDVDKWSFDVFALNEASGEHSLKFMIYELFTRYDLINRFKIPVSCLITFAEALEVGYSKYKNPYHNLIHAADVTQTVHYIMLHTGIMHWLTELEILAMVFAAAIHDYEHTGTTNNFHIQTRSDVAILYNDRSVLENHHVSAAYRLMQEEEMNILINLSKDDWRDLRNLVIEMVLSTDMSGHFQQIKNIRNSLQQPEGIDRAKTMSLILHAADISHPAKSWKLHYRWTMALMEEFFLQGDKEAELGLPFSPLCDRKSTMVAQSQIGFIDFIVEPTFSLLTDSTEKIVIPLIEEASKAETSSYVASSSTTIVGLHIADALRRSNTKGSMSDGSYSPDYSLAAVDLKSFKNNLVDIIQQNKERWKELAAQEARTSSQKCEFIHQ

Row | SMILES | IC50 (PDE1C; [1]) [nM] | IC50 (PDE1A; [1]) [nM] | IC50 (PDE1B; read-out: PDE1B, IC50) [nM] | IC50 (PDE1C) [nM] | IC50 (PDE1B; PDE1B, IC50 (nM)) [nM] | IC50 (PDE1A) [nM]
1 | CCOc1ncccc1-c1cc(NCc2cn[nH]c2)c2c(n1)c(C)nn2C(C)C [Example 7, 5-(2-ethoxy-3-pyridyl)-1-isopropyl-3-methyl-N-(1H-pyrazol-4-ylmethyl)pyrazolo[4,3-b]pyridin-7-amine] | 37 | 21 | 1.1 | – | – | –
2 | CCOc1ncccc1-c1cc(NCc2ccn(C)c(=O)c2)c2c(n1)c(C)nn2C(C)C [Example 78, 4-[[[5-(2-ethoxy-3-pyridyl)-1-isopropyl-3-methyl-pyrazolo[4,3-b]pyridin-7-yl]amino]methyl]-1-methyl-pyridin-2-one] | 44 | 27 | 3.2 | – | – | –
3 | COc1ncccc1-c1cc(NCc2cccnc2C(F)(F)F)c2c(n1)c(C)nn2C(C)C [Example 170, 1-isopropyl-5-(2-methoxy-3-pyridyl)-3-methyl-N-[[2-(trifluoromethyl)-3-pyridyl]methyl]pyrazolo[4,3-b]pyridin-7-amine] | 46 | 42 | 5.3 | – | – | –
4 | Cc1nn(C(C)C)c2c(NCc3cnn(C)c3)cc(N3CCCC3=O)nc12 [Example 154, 1-[1-isopropyl-3-methyl-7-[(1-methylpyrazol-4-yl)methylamino]pyrazolo[4,3-b]pyridin-5-yl]pyrrolidin-2-one] | 49 | 26 | 3.6 | – | – | –
5 | CCCOc1ncccc1-c1cc(NCc2nc[nH]n2)c2c(n1)c(C)nn2C(C)C [Example 146, 1-isopropyl-3-methyl-5-(2-propoxy-3-pyridyl)-N-(1H-1,2,4-triazol-3-ylmethyl)pyrazolo[4,3-b]pyridin-7-amine] | 14 | 3.9 | 0.51 | – | – | –
6 | CCCOc1ncccc1-c1cc(NCc2nnn(C)n2)c2c(n1)c(C)nn2C(C)C [Example 93, 1-isopropyl-3-methyl-N-[(2-methyltetrazol-5-yl)methyl]-5-(2-propoxy-3-pyridyl)pyrazolo[4,3-b]pyridin-7-amine] | 17 | 4.3 | 0.96 | – | – | –
7 | CCOc1ncccc1-c1cc(NCc2cncnc2OC)c2c(n1)c(C)nn2C(C)C [Example 190, 5-(2-ethoxy-3-pyridyl)-1-isopropyl-N-[(4-methoxypyrimidin-5-yl)methyl]-3-methyl-pyrazolo[4,3-b]pyridin-7-amine] | 94 | 74 | 7.9 | – | – | –
8 | CCOc1ncccc1-c1cc(NCc2cc[nH]n2)c2c(cnn2C(C)C)n1 [Example 57, 5-(2-ethoxy-3-pyridyl)-1-isopropyl-N-(1H-pyrazol-3-ylmethyl)pyrazolo[4,3-b]pyridin-7-amine] | 170 | 98 | 4.8 | – | – | –
9 | COc1ccc(CNc2cc(-c3cccnc3N(C)C)nc3c(C)nn(C(C)C)c23)cc1 [Example 192, 5-[2-(dimethylamino)-3-pyridyl]-1-isopropyl-N-[(4-methoxyphenyl)methyl]-3-methyl-pyrazolo[4,3-b]pyridin-7-amine] | 490 | 630 | 71 | – | – | –
10 | CCOc1ncccc1-c1cc(NCc2cnn(C)c2)c2c(n1)c(C)nn2C1COC1 [Example 27, 5-(2-ethoxy-3-pyridyl)-3-methyl-N-[(1-methylpyrazol-4-yl)methyl]-1-(oxetan-3-yl)pyrazolo[4,3-b]pyridin-7-amine] | 170 | 94 | 6.6 | – | – | –
11 | CCOc1ncccc1-c1cc(NCc2cnn(C)n2)c2c(n1)c(C)nn2C(C)C [Example 5, 5-(2-ethoxy-3-pyridyl)-1-isopropyl-3-methyl-N-[(2-methyltriazol-4-yl)methyl]pyrazolo[4,3-b]pyridin-7-amine] | 28 | 11 | 1.8 | – | – | –
12 | CCOc1ncccc1-c1cc(NCc2ncn(C)n2)c2c(cnn2C(C)CC)n1 (single isomer, unassigned) [Example 140, 5-(2-ethoxy-3-pyridyl)-1-[1-methylpropyl]-N-[(1-methyl-1,2,4-triazol-3-yl)methyl]pyrazolo[4,3-b]pyridin-7-amine] | – | 32 | – | 52 | 1.7 | –
13 | Cc1nn(C(C)C)c2c(NCc3cnn(C)c3)cc(-c3ncnn3C)nc12 [Example 195, 1-isopropyl-3-methyl-5-(1-methyl-1H-1,2,4-triazol-5-yl)-N-((1-methyl-1H-pyrazol-4-yl)methyl)-1H-pyrazolo[4,3-b]pyridin-7-amine] | 160 | 420 | 110 | – | – | –
14 | [2H]C([2H])([2H])COc1ncccc1-c1cc(NCc2cccnc2OC)c2c(n1)c(C)nn2C(C)C [Example 182, 5-(2-(ethoxy-2,2,2-d3)pyridin-3-yl)-1-isopropyl-N-((2-methoxypyridin-3-yl)methyl)-3-methyl-1H-pyrazolo[4,3-b]pyridin-7-amine] | – | – | – | 61 | 1.1 | 24
15 | CCOc1ncccc1-c1cc(NCc2nnc(C)s2)c2c(n1)c(C)nn2C(C)C [Example 33, 5-(2-ethoxy-3-pyridyl)-1-isopropyl-3-methyl-N-[(5-methyl-1,3,4-thiadiazol-2-yl)methyl]pyrazolo[4,3-b]pyridin-7-amine] | 7.9 | 1.6 | 0.41 | – | – | –
16 | CCOc1ncccc1-c1cc(NCc2cn(C)c(C)n2)c2c(n1)c(C)nn2C(C)C [Example 51, N-((1,2-dimethyl-1H-imidazol-4-yl)methyl)-5-(2-ethoxypyridin-3-yl)-1-isopropyl-3-methyl-1H-pyrazolo[4,3-b]pyridin-7-amine 2,2,2-trifluoroacetate] | 88 | 53 | 9.1 | – | – | –
17 | CCOc1ncccc1-c1cc(NCc2cncc(OC)n2)c2c(n1)c(C)nn2C(C)C [Example 82, 5-(2-ethoxy-3-pyridyl)-1-isopropyl-N-[(6-methoxypyrazin-2-yl)methyl]-3-methyl-pyrazolo[4,3-b]pyridin-7-amine] | 35 | 16 | 1 | – | – | –
18 | CCOc1ncccc1-c1cc(NCc2cccnc2OC)c2c(n1)c(C)nn2C1COC1 [Example 197, 5-(2-ethoxy-3-pyridyl)-N-[(2-methoxy-3-pyridyl)methyl]-3-methyl-1-(oxetan-3-yl)pyrazolo[4,3-b]pyridin-7-amine] | 190 | 190 | 13 | – | – | –
19 | CCOc1ncccc1-c1cc(NCc2ccccc2C(F)(F)F)c2c(n1)c(C)nn2C(C)C [Example 90, 5-(2-ethoxy-3-pyridyl)-1-isopropyl-3-methyl-N-[[2-(trifluoromethyl)phenyl]methyl]pyrazolo[4,3-b]pyridin-7-amine] | 640 | 270 | 12 | – | – | –
20 | CCOc1ncccc1-c1cc(NCc2cccnc2C)c2c(n1)c(C)nn2C(C)C [Example 84, 5-(2-ethoxy-3-pyridyl)-1-isopropyl-3-methyl-N-[(2-methyl-3-pyridyl)methyl]pyrazolo[4,3-b]pyridin-7-amine] | 23 | 19 | 1.8 | – | – | –
21 | CCOc1ncccc1-c1cc(NCc2cccnc2C(F)(F)F)c2c(n1)c(C)nn2C(C)C [Example 77, 5-(2-ethoxy-3-pyridyl)-1-isopropyl-3-methyl-N-[[2-(trifluoromethyl)-3-pyridyl]methyl]pyrazolo[4,3-b]pyridin-7-amine] | 64 | 21 | 0.22 | – | – | –
22 | Cc1nn(C)cc1-c1cc(NCc2cnn(C)c2)c2c(n1)c(C)nn2C(C)C [Example 61, 5-(1,3-dimethylpyrazol-4-yl)-1-isopropyl-3-methyl-N-[(1-methylpyrazol-4-yl)methyl]pyrazolo[4,3-b]pyridin-7-amine] | 680 | 550 | 120 | – | – | –
23 | Cc1nn(C(C)C)c2c(NCc3cnn(C)c3)cc(N3CCC3=O)nc12 [Example 152, 1-[1-isopropyl-3-methyl-7-[(1-methylpyrazol-4-yl)methylamino]pyrazolo[4,3-b]pyridin-5-yl]azetidin-2-one] | 61 | 48 | 32 | – | – | –
24 | CCOc1ncccc1-c1cc(NCc2cccn(C)c2=O)c2c(n1)c(C)nn2C(C)C [Example 108, 3-[[[5-(2-ethoxy-3-pyridyl)-1-isopropyl-3-methyl-pyrazolo[4,3-b]pyridin-7-yl]amino]methyl]-1-methyl-pyridin-2-one] | 12 | 2.8 | 0.36 | – | – | –
25 | CCOc1ncccc1-c1cc(NCc2cnccc2OC)c2c(n1)c(C)nn2C(C)C [Example 92, 5-(2-ethoxy-3-pyridyl)-1-isopropyl-N-[(4-methoxy-3-pyridyl)methyl]-3-methyl-pyrazolo[4,3-b]pyridin-7-amine] | 110 | 47 | 2.7 | – | – | –
26 | Cc1cnc(-c2cc(NCc3cnn(C)c3)c3c(n2)c(C)nn3C(C)C)s1 [Example 148, 1-isopropyl-3-methyl-N-[(1-methylpyrazol-4-yl)methyl]-5-(5-methylthiazol-2-yl)pyrazolo[4,3-b]pyridin-7-amine] | 86 | 110 | 58 | – | – | –
27 | CCOc1ncccc1-c1cc(NCc2nccs2)c2c(cnn2C(C)C)n1 [Example 20, 5-(2-ethoxy-3-pyridyl)-1-isopropyl-N-(thiazol-2-ylmethyl)pyrazolo[4,3-b]pyridin-7-amine] | 600 | 520 | 37 | – | – | –
28 | CCOc1ncccc1-c1cc(NCc2cnn(C)c2)c2c(n1)c(CF)nn2C(C)C [Example 199, 5-(2-ethoxypyridin-3-yl)-3-(fluoromethyl)-1-isopropyl-N-((1-methyl-1H-pyrazol-4-yl)methyl)-1H-pyrazolo[4,3-b]pyridin-7-amine] | 26 | 7.4 | 0.75 | – | – | –
